According to patent US20260207753A1, “PROTAC DEGRADATION OF FACTORS PAX3 AND FOXO1” (THE RESEARCH INSTITUTE AT NATIONWIDE CHILDREN'S HOSPITAL, priority 2022, published 2026):
“Also recorded” adds a separate entry of the source.

Key:
[1] = system: PAX3-FOXO1 fusion; assay: Western blot of soluble nuclear extracts: PAX3-FOXO1 fusion loss in RH4 cells; type: cell-based, human; settings: 24 hours; for loss of the PAX3-FOXO1 fusion: 1 μM; for PROTAC concentration at which PAX3-FOXO1 is fully depleted: FIG. 6A
Description: (§1) The inventors investigated the effect of a number of PROTAC inhibitors on fusion-positive and negative RMS cell models. The experiment was designed as follows. Fusion-positive RMS (RH4 and RH30) and fusion-negative RMS (RD and CTR) cells were treated with DMSO or 1 μM dBRD9, DL-ds2-4, or SMARCA4-31 for 24 hours. Soluble nuclear extracts were prepared to assess target degradation as well as abundance of additional SWI/SNF complex subunits and the transcription factor FOXO1 (wild-type and PAX3-FOXO1 fusion).
(§2) The inventors also investigated whether the effect of the compounds was reversible. Fusion-positive RMS RH4 cells were treated for 24 hours with DMSO including […] dBRD9, DL-ds2-4, or SMARCA4-31. After the treatment period cells were collected or washed extensively to remove the compound and incubated in untreated growth media for an additional 24-hour period. Soluble nuclear extracts were prepared to assess target degradation and recovery.
(§3) In FIG. 6A, RH4 cells were treated for 24 hours with the indicated dose of SMARCA4-31 (labeled S4-31) or DL-dS2-4 (labeled S2-4).
(§4) In FIG. 6B, RH4 cells were treated with 125 nM SMARCA4-31 (labeled S4-31) or 250 nM DL-dS2-4 (labeled S2-4) for the indicated time.

[2] = system: SMARCB1; assay: Abundance of SWI/SNF subunit SMARCB1 in soluble nuclear extracts; type: cell-based; settings: 1 μM, 24 hours
Description: as §1

[3] = target: T1, BRD9 (Homo sapiens, UniProt Q9H8M2); assay: Abundance of GBAF subunit BRD9 in soluble nuclear extracts; type: cell-based; settings: 1 μM, 24 hours
T1 construct: Soluble nuclear extracts were prepared to assess target degradation as well as abundance of additional SWI/SNF complex subunits; endogenous in cells; host or cells: RH4, RH30, RD, CTR rhabdomyosarcoma cells
T1 sequence (Q9H8M2 1-597): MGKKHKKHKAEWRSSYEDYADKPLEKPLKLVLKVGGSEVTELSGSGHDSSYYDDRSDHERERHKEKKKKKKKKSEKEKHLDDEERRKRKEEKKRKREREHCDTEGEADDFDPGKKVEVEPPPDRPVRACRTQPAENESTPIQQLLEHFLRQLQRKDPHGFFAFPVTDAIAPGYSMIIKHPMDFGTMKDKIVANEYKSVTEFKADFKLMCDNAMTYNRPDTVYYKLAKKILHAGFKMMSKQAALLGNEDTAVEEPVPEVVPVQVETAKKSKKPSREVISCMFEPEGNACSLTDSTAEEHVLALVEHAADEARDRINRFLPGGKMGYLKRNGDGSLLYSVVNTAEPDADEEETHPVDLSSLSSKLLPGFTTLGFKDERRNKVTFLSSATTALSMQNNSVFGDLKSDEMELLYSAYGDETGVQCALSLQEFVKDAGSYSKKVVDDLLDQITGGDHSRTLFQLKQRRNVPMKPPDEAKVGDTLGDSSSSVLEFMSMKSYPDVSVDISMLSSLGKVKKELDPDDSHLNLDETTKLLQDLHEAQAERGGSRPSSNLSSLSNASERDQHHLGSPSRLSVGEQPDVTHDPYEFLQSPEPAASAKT
Description: as §1

[4] = target: T2, PAX3-FOXO1 (Homo sapiens, UniProt P23760); assay: LC/MS of BAF-associated transcription factors in rhabdomyosarcoma cells: PAX3-FOXO1; type: cell-based; settings: 1 μM, 24-hour treatment
T2 construct: endogenous in cells
Excerpt: (§5) In addition to PAX3-FOXO1, depleted core-regulatory transcription factors included MYOD1, an essential factor in rhabdomyosarcoma cell growth.

[5] = target: T3, PBRM1 (Homo sapiens, UniProt Q86U86); assay: Abundance of PBAF subunit PBRM1 in soluble nuclear extracts; type: cell-based; settings: 24 hours; for degradation of dedicated PBAF subunit PBRM1: 1 μM, soluble nuclear extracts
T3 construct: Soluble nuclear extracts were prepared to assess target degradation as well as abundance of additional SWI/SNF complex subunits; endogenous in cells; host or cells: RH4 (washout experiment) and other RMS cells
Description: as §1, §2

[6] = system: DPF2; assay: Abundance of BAF subunit DPF2 in soluble nuclear extracts; type: cell-based; settings: 1 μM, 24 hours
Description: as §1

[7] = system: MYOD1; assay: LC/MS of BAF-associated transcription factors in rhabdomyosarcoma cells: MYOD1; type: cell-based; settings: 1 μM, 24-hour treatment
Excerpt: as §5

[8] = system: RH4 cells; assay: Tn5 transposition library fragment length distribution (chromatin accessibility) in RH4 cells; type: cell-based, human; settings: 24 hours, with or without washout and 24-hour recovery, FIG. 5
Description: Finally, the inventors determined if the reversible disruption of the SWU/SNF complex results in altered chromatin accessibility. FP-RMS RH4 cells were treated for 24 hours with DMSO or SMARCA4-31. A third group was treated with SMARCA4-31 for 24 hours before washout, and a 24-hour recovery period. 50.000 cells were used. Tn5 transposition followed by Illumina library amplification (15 cycles). Libraries were run on Bioanalyzer to assess fragment length distribution.

[9] = system: SMARCC1; assay: Abundance of SWI/SNF subunit SMARCC1 in soluble nuclear extracts; type: cell-based; settings: 1 μM, 24 hours
Description: as §1

[10] = target: T4, FOXO1 (Homo sapiens, UniProt Q12778); assay: Western blot of soluble nuclear extracts: wild-type FOXO1 loss in CTR cells; type: cell-based; settings: 1 μM, 24 hours
T4 construct: In CTR cells, which only express the wild-type FOXO1; endogenous in cells; host or cells: CTR (SMS-CTR) cells
Description: as §1

[11] = system: SMARCA4 and SMARCA2; assay: Western blot of soluble nuclear extracts: ATPase (SMARCA4/SMARCA2) degradation in RH4 / rhabdomyosarcoma cells; type: cell-based, human; settings: for PROTAC exposure time until ATPase depletion is observed: 125 nM SMARCA4-31 or 250 nM DL-dS2-4, FIG. 6B; for dose required for maximal ATPase depletion: FIG. 6A; for loss of ATPases SMARCA4/SMARCA2: rhabdomyosarcoma cells, 1 μM, 24-hour treatment, western blot
Description: as §1, §2, §3, §4

[12] = system: RH4 cells; assay: Incucyte cell proliferation, growth-curve AUC dose-response, RH4; type: cell-based, human; settings: RH4 (fusion-positive), 96-hour, AUC of growth curve, initial data, FIG. 7A
Description: (§6) In FIG. 7A, RH4 (a PAX3-FOXO1 fusion-positive rhabdomyosarcoma cell line) and SMS-CTR (a PAX3-FOXO1 fusion-negative rhabdomyosarcoma cell line) cells were treated with increasing concentrations of SMARCA4-31 or DL-dS2-4 for a 96-hour period, and cell proliferation was monitored on an Incucyte® system. […] We explored why RH4 and SMS-CTR cells display relatively high sensitivity to PROTAC treatment. The CRBN gene expresses the protein cereblon, a component of an E3 ubiquitin ligase complex. By analyzing CRBN gene expression using RNA-seq from the Cancer Cell Line Encyclopedia (CCLE) database, we show in FIG. 7B, that RH4 and SMS-CTR cells express high levels of CRBN compared to other rhabdomyosarcoma (RMS) cell lines.

[13] = system: SMS-CTR cells; assay: Incucyte cell proliferation, growth-curve AUC dose-response, SMS-CTR; type: cell-based; settings: SMS-CTR (fusion-negative), 96-hour, AUC of growth curve, initial data, FIG. 7A
Description: as §6

T4 sequence (Q12778 whole entry): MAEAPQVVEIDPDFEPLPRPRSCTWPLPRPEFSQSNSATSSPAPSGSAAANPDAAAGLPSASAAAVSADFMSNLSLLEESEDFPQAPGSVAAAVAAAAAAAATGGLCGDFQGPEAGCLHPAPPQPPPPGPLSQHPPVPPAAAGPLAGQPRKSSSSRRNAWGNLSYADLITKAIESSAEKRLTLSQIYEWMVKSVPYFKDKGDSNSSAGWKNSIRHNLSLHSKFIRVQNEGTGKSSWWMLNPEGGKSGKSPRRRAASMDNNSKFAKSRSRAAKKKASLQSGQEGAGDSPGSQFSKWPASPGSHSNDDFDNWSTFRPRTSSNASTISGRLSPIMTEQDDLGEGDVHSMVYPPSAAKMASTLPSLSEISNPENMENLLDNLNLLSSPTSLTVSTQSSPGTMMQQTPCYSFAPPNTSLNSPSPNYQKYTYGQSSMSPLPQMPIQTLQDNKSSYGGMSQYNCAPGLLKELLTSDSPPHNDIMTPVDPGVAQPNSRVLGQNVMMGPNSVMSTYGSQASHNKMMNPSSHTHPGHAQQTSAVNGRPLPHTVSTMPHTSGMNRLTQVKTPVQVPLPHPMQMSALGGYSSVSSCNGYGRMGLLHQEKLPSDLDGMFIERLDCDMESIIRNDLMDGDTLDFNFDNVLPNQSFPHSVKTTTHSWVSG
T3 sequence (Q86U86 whole entry): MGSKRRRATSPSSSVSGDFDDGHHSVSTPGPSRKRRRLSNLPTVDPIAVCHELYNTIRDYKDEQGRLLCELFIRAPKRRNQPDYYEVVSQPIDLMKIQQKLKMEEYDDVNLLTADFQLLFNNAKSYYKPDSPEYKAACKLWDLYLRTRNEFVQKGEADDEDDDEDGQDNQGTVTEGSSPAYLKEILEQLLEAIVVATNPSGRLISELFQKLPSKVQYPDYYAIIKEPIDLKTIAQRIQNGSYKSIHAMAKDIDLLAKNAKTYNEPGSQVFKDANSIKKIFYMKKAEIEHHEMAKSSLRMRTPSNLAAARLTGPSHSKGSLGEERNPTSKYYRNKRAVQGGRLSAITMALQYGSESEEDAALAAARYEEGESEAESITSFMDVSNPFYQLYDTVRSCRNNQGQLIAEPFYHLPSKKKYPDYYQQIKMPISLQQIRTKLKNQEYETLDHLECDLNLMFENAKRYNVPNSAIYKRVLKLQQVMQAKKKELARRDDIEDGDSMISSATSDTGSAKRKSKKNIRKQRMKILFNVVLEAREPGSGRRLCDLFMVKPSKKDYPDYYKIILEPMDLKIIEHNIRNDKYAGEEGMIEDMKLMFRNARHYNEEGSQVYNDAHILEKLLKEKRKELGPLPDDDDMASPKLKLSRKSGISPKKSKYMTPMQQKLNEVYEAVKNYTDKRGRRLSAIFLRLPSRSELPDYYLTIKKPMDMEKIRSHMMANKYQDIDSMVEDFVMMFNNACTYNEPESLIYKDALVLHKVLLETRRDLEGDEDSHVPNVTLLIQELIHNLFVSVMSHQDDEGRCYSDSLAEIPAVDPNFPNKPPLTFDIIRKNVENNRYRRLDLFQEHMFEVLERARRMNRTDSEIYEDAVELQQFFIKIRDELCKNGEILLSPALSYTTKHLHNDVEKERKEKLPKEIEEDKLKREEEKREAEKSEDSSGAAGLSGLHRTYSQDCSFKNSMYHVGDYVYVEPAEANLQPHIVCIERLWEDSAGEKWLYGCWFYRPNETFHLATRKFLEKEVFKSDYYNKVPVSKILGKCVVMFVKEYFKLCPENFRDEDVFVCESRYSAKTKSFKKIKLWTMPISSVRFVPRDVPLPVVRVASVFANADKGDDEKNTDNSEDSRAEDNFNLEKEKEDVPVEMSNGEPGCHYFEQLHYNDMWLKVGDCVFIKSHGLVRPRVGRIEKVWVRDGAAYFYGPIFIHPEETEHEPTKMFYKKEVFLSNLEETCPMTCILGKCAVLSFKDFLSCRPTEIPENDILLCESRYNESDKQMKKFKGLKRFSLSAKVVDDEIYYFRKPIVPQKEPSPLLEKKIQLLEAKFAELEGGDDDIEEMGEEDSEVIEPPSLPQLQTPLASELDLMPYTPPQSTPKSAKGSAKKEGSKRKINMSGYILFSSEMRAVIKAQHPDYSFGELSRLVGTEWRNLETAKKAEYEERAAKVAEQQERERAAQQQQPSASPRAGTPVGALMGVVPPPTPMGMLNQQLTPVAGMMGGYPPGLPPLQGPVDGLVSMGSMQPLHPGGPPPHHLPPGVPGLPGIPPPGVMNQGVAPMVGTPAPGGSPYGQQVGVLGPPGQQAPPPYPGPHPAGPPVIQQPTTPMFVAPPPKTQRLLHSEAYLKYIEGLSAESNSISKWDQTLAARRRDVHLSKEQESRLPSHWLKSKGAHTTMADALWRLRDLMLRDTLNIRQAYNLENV
T2 sequence (P23760 with tags, fused parts or gaps limits assumed): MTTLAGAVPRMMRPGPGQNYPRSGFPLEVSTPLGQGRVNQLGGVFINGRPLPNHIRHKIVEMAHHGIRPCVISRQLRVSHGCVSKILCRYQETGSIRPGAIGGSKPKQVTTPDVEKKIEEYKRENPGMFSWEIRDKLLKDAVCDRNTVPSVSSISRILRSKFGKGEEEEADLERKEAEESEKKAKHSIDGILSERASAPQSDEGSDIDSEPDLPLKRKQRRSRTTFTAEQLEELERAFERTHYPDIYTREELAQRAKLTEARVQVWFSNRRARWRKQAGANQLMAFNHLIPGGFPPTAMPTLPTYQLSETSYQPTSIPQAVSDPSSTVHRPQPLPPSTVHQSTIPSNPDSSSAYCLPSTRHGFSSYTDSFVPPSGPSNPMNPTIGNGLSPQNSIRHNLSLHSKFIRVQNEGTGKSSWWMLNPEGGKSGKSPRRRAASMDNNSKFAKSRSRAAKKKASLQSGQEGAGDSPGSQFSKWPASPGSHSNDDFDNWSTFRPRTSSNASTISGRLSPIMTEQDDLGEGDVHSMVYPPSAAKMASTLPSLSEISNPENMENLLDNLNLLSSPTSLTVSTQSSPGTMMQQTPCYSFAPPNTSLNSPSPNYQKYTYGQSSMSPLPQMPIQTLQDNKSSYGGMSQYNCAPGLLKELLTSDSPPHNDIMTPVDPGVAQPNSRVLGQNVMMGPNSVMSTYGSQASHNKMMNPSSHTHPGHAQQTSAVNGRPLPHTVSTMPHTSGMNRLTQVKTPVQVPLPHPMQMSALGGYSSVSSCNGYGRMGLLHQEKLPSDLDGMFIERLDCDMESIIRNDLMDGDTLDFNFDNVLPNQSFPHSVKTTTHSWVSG

Row | abundance of GBAF subunit BRD9 [3] | PAX3-FOXO1 depletion by LC/MS [4] | degradation of dedicated PBAF subunit PBRM1 [5] | extent of PBRM1 degradation, reversibility experiment ([5]; RH4 cells, 1 µM, FIG. 4) | SMILES | loss of the PAX3-FOXO1 fusion [1] | extent of PAX3-FOXO1 degradation, reversibility experiment ([1]; 1 µM, FIG. 4) | PROTAC concentration at which PAX3-FOXO1 is fully depleted [1] [nM] | abundance of core subunit SMARCB1 [2] | abundance of BAF subunit DPF2 [6] | MYOD1 depletion by LC/MS [7] | chromatin accessibility (fragment length signatures) [8] | degradation of core SWI/SNF subunit SMARCC1 [9] | loss of wild-type FOXO1 [10] | PROTAC exposure time until ATPase depletion is observed ([11]; RH4 cells) | extent of SMARCA4 degradation, reversibility experiment ([11]; RH4 cells, 24 hours, 1 µM, FIG. 4) | dose required for maximal ATPase depletion ([11]; RH4 cells, 24 hours) [nM] | loss of ATPases SMARCA4/SMARCA2 [11] | efficacy in inhibiting cell growth (concentration range) [12] | efficacy in inhibiting cell growth (concentration range) [13]
1 | remained intact | depleted | specific degradation | More complete degradation | O=C1CCC(N2C(=O)c3ccc(NCCCCCCCCOCCc4cccc(N5C[C@H]6C[C@@H]5CN6/C=C/C(=O)c5ccccc5O)c4)cc3C2=O)C(=O)N1 (some centres unmarked) [SMARCA4-31] | loss of the PAX3-FOXO1 fusion; also recorded: concurrent loss | More complete degradation | 62.5 | remained intact | remained intact | depleted | alterations to the accessibility landscape | degraded | FOXO1 loss; also recorded: concurrent loss | approximately 20 hours | More complete degradation | 125 | concurrent loss | sub-micromolar efficacy | sub-micromolar efficacy
2 | remained intact | – | specific degradation | – | O=C1CCC(N2C(=O)c3cccc(NCCCCNC(=O)c4cccc(C#Cc5cc(NC(=O)Nc6ccnc(Cl)c6)ccn5)c4)c3C2=O)C(=O)N1 (racemic) [DL-dS2-4] | loss of the PAX3-FOXO1 fusion; also recorded: concurrent loss | – | 62.5 | remained intact | remained intact | – | – | degraded | FOXO1 loss; also recorded: concurrent loss | approximately 20 hours | – | 250 | concurrent loss | sub-micromolar efficacy | sub-micromolar efficacy
